Data: ChEMBL document CHEMBL1146653, “Potent and selective, sulfamide-based human beta 3-adrenergic receptor agonists” (Bioorg Med Chem Lett, 2004)

How the values were obtained:
[1] = target: T1, Beta-3 adrenergic receptor (Homo sapiens, UniProt P13945); test: Intrinsic activity (IA) at human Beta-3 adrenergic receptor (represented by the percentage of the maximal response attained by isoproterenol); assay type: functional
Target sequence in this assay (P13945 whole entry, looked up): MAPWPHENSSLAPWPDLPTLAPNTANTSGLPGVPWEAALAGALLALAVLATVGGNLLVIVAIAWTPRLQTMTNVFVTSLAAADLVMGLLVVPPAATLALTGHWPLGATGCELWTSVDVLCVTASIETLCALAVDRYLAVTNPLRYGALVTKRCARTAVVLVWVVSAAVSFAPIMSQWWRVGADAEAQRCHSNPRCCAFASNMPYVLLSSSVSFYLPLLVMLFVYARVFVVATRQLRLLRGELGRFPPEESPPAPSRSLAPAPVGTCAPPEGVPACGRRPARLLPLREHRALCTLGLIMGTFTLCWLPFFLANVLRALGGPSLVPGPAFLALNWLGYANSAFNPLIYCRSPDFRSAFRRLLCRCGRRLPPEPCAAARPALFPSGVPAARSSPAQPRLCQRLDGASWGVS

[2] = target: Beta-1 adrenergic receptor (Homo sapiens) (UniProt P08588); test: Intrinsic activity (IA) at human Beta-1 adrenergic receptor (at 30 uM, represented by the percentage of the maximal response attained by isoproterenol); assay type: functional
Beta-1 adrenergic receptor (Homo sapiens), sequence (P08588 whole entry, looked up): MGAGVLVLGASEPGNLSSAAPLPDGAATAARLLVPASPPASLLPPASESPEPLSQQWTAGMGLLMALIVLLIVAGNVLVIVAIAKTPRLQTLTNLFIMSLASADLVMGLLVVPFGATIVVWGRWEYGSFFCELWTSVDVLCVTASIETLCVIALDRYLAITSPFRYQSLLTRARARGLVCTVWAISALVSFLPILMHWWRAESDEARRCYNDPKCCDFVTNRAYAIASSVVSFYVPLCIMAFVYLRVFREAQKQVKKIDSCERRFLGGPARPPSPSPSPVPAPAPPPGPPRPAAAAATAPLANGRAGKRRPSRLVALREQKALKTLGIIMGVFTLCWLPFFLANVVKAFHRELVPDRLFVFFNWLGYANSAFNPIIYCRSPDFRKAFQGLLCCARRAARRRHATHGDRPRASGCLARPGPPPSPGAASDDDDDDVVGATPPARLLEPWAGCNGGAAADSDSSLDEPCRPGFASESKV

[3] = target: T1, Beta-3 adrenergic receptor; test: Agonist activity (EC50) was assessed by measuring cAMP levels in CHO cells expressing cloned human Beta-3 adrenergic receptor; assay type: functional, cell-based
Target sequence in this assay (P13945 whole entry): as the sequence (P13945 whole entry, looked up) above

[4] = target: Beta-2 adrenergic receptor (Homo sapiens) (UniProt P07550); test: Intrinsic activity (IA) human Beta-2 adrenergic receptor (at 30 uM, represent by the percentage of the maximal response attained by isoproterenol); assay type: functional
Beta-2 adrenergic receptor (Homo sapiens), sequence (P07550 whole entry, looked up): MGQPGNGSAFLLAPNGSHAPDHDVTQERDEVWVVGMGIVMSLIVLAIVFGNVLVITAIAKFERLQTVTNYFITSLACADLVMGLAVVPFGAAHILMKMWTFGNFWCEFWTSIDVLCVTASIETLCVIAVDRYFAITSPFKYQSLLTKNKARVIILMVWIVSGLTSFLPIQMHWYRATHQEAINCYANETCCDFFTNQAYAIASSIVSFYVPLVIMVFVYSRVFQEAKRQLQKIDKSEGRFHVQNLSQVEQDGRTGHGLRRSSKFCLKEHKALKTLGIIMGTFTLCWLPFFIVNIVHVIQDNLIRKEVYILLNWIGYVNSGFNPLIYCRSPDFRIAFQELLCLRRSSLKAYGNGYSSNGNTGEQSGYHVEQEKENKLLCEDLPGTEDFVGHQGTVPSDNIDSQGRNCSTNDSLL

[5] = target: Beta-1 adrenergic receptor (Homo sapiens) (UniProt P08588); test: Intrinsic activity (IA) of 30 uM compound at human Beta-1 adrenergic receptor represent the percentage of the maximal response attained by isoproterenol

| SMILES | IA [1] | IA [2] | EC50 [3] [nM] | IA [4] | IA [5] |
| --- | --- | --- | --- | --- | --- |
| CC(C)(Cc1ccc(NS(=O)(=O)N2CCN(Cc3ccccc3)CC2)cc1)NC[C@H](O)c1cccnc1 | 105 | 46 | 18 | 13 | – |
| CN(C)S(=O)(=O)Nc1ccc(CCNC[C@H](O)c2cccc(Cl)c2)cc1 | 75 | 5 | 299 | 6 | – |
| O=S(=O)(Nc1ccc(CCNC[C@H](O)c2cccc(Cl)c2)cc1)NC1CCCCC1 | 63 | – | 464 | 7 | 10 |
| C[C@@H]1C[C@H](C)CN(S(=O)(=O)Nc2ccc(CC(C)(C)NC[C@H](O)c3cccnc3)cc2)C1 | 89 | 7 | 4 | 11 | – |
| CN(C1CCCCC1)S(=O)(=O)Nc1ccc(CCNC[C@H](O)c2cccc(Cl)c2)cc1 | 62 | 6 | 537 | 5 | – |
| O=S(=O)(Nc1ccc(CCNC[C@H](O)c2cccnc2)cc1)NC1CCCCC1 | 71 | 0 | 1460 | 0 | – |
| CC1CCN(S(=O)(=O)Nc2ccc(OCCNC[C@H](O)c3cccnc3)cc2)CC1 | 98 | 5 | 1360 | 7 | – |
| O=S(=O)(Nc1ccc(CCNC[C@H](O)c2cccnc2)cc1)c1ccc(-c2nc(-c3ccc(C(F)(F)F)cc3)cs2)cc1 | 92 | 1 | – | 1 | – |
| O=S(=O)(Nc1ccc(CCNC[C@H](O)c2cccnc2)cc1)N1CCCCC1 | 77 | 7 | 99 | 6 | – |
| C[C@@H]1CN(S(=O)(=O)Nc2ccc(CC(C)(C)NC[C@H](O)c3cccnc3)cc2)C[C@H](C)O1 | 85 | 10 | 8 | 8 | – |
| CN(C)S(=O)(=O)Nc1ccc(CC(C)(C)NC[C@H](O)c2cccnc2)cc1 | 98 | 10 | 38 | 7 | – |
| CN(C)S(=O)(=O)Nc1ccc(OCCNC[C@H](O)c2cccnc2)cc1 | 96 | 3 | 943 | 4 | – |
| COCCNS(=O)(=O)Nc1ccc(CC(C)(C)NC[C@H](O)c2cccnc2)cc1 | 103 | 28 | 165 | 24 | – |
| O=S(=O)(Nc1ccc(CCNC[C@H](O)c2cccc(Cl)c2)cc1)N1CCCCC1 | 84 | 4 | 617 | 5 | – |
| CN(C1CCCCC1)S(=O)(=O)Nc1ccc(CCNC[C@H](O)c2cccnc2)cc1 | 67 | 15 | 180 | 16 | – |
| CC(C)(Cc1ccc(NS(=O)(=O)Nc2ccccc2)cc1)NC[C@H](O)c1cccnc1 | 107 | 29 | 7 | 8 | – |
| CN(C)S(=O)(=O)Nc1ccc(CCNC[C@H](O)c2cccnc2)cc1 | 84 | 6 | 265 | 11 | – |
| CN(C)S(=O)(=O)N(C)c1ccc(CCNC[C@H](O)c2cccc(Cl)c2)cc1 | 105 | 2 | 9900 | 1 | – |
| CC(C)(Cc1ccc(NS(=O)(=O)NC2CCCCC2)cc1)NC[C@H](O)c1cccnc1 | 110 | 17 | 25 | 19 | – |
| CC1CCN(S(=O)(=O)Nc2ccc(CC(C)(C)NC[C@H](O)c3cccnc3)cc2)CC1 | 91 | 12 | 10 | 6 | – |
| CC1CCN(S(=O)(=O)Nc2ccc(CCNC[C@H](O)c3cccnc3)cc2)CC1 | 80 | 6 | 36 | 8 | – |
| CC(C)(Cc1ccc(NS(=O)(=O)N2CCC(c3ccccc3)CC2)cc1)NC[C@H](O)c1cccnc1 | 106 | 20 | 47 | 9 | – |
| O=S(=O)(Nc1ccc(CCNC[C@H](O)c2cccnc2)cc1)N1CCC(c2ccccc2)CC1 | 100 | 2 | 23 | 2 | – |
| CN1CCN(S(=O)(=O)Nc2ccc(CC(C)(C)NC[C@H](O)c3cccnc3)cc2)CC1 | 79 | 7 | 41 | 4 | – |
| C[C@@H]1C[C@H](C)CN(S(=O)(=O)Nc2ccc(CCNC[C@H](O)c3cccnc3)cc2)C1 | 95 | 11 | 24 | 17 | – |
